Results from article PMC6911004, “Fragment-based screening identifies molecules targeting the substrate-binding ankyrin repeat domains of tankyrase” (Scientific Reports, 2019).

Legend:
Type in all cases: binding
TNKS ARC1 (178–336) = biological target: T1, TNKS ARC1 (178–336) (Homo sapiens, UniProt O95271); assay: WaterLOGSY NMR assay
T1 construct: TNKS ARC1 (178–336); His6-GST; made in house; host or cells: E. coli
Protocol: (§1) Fragments were dispensed in duplicate into a 384-well plate (250 nL, 100 mM stock in DMSO). Wells were backfilled with DMSO (2.25 μL). Tankyrase ARC protein (47.5 μL in 25 mM HEPES-NaOH pH7.5, 100 mM NaCl, 2 mM TCEP, 10% D2O; 20 μM final protein concentration in the assay) was added to the samples containing protein; buffer only (47.5 μL) was added to the compound-only samples. Solutions were transferred to 1.7 mm NMR tubes using a Gilson liquid handling system. ^1H NMR spectra were recorded, with the DMSO signal dampened. The bulk water signal at 4.7 ppm was selectively inverted. Data were processed using Bruker Topspin 3.14[66].

TNKS ARC5 (799–958) = biological target: T2, TNKS ARC5 (799–958) (Homo sapiens, UniProt O95271); assay: WaterLOGSY NMR assay
T2 construct: TNKS ARC5 (799–958); His6-GST; made in house; host or cells: E. coli
Protocol: as §1

TNKS2 ARC1 (20–178) = biological target: T3, TNKS2 ARC1 (20–178) (Homo sapiens, UniProt Q9H2K2); assay: WaterLOGSY NMR assay
T3 construct: TNKS2 ARC1 (20–178); His6-GST; made in house; host or cells: E. coli
Protocol: as §1

TNKS ARC2–3 (331–645) = biological target: T4, TNKS ARC2–3 (331–645) (Homo sapiens, UniProt O95271); assay: WaterLOGSY NMR assay
T4 construct: TNKS ARC2–3 (331–645); His6-GST; made in house; host or cells: E. coli
Protocol: as §1

TNKS ARC4 (646–807) = biological target: T5, TNKS ARC4 (646–807) (Homo sapiens, UniProt O95271); assay: WaterLOGSY NMR assay
T5 construct: TNKS ARC4 (646–807); His6-GST; made in house; host or cells: E. coli
Protocol: as §1

TNKS2 ARC2–3 (173–487) = biological target: T6, TNKS2 ARC2–3 (173–487) (Homo sapiens, UniProt Q9H2K2); assay: WaterLOGSY NMR assay
T6 construct: TNKS2 ARC2–3 (173–487); His6-GST; made in house; host or cells: E. coli
Protocol: as §1

TNKS2 ARC4 = biological target: T7, TNKS2 ARC4 (Homo sapiens, UniProt Q9H2K2); assay: Fluorescence polarisation (FP) competition assay with Cy5-labelled TBM peptide probe; details: 5 nM Cy5-RSPPDGQS probe, 5 µM TNKS2 ARC4
T7 construct: The cell was filled with TNKS2 ARC4 (488–649); His6-GST; made in house; host or cells: E. coli
T7 sequence (Q9H2K2 488-649): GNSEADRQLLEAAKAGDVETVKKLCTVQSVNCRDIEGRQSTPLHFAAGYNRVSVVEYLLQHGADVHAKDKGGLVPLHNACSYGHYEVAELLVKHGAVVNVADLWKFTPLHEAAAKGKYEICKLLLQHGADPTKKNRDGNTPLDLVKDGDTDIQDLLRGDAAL
From the text: Given the anticipated impairment of cell permeability by the N-terminal TBM arginine, we investigated whether the guanidine group could be substituted. To prioritise synthesis efforts, we followed an in-silico docking approach, exploring the importance of the positive charge and hydrogen bonding interactions, linker lengths/flexibility and side chain geometry (see Supplementary Materials and Methods for details). From commercially available side chain alternatives, we identified five potential candidates for R replacements: 1H-imidazole-5-pentanoic acid, 1H-imidazole-1-pentanoic acid, 7-aminoheptanoic acid, D-arginine and L-citrulline (Supplementary Fig. 1). We next synthesised 3BP2 TBM octapeptides, incorporating the five arginine substituents at position 1, followed by fluorescence polarisation (FP) assays to assess competition of the peptides with a Cy5-labelled TBM peptide probe (Supplementary Fig. 1). We used a 16-mer TBM peptide (LPHLQRSPPDGQSFRSW, W introduced to measure A280) derived from the model substrate 3BP2, a signalling adapter protein[4], as a positive control for a competitor, and a corresponding non-binding TBM peptide bearing a glycine-to-arginine substitution at position 6[4] as a negative control. […]
Fluorescence polarisation assay
Unlabelled arginine substituent peptides were titrated up to 1 mM in the presence of 5 nM of a labelled peptide probe (Cy5-RSPPDGQS, JPT Peptide Technologies) and 5 µM TNKS2 ARC4. 3BP2 16-mer peptide was used as a positive control, and the same peptide with the glycine at position 6 mutated to arginine (G6R) was used as a negative control. Plus F ProxiPlates (PerkinElmer) were used with a 2103 Envision Multilabel plate reader (PerkinElmer), fitted with 620 nm (excitation) and 688 nm (emission) filters. Filter bandwidths were 10 nm. A Nanodrop 2000 was used for measuring protein and probe concentrations by UV absorption. TNKS2 ARC4 protein was thawed from -80 ° C, and centrifuged at 13,000 […]
Two independent experiments were performed in technical duplicate. A 2´ stock solution containing TNKS2 ARC4 protein (10 µM) and fluorescently tagged probe (10 nM) in assay buffer (25 mM HEPES-NaOH pH 7.5, 100 mM NaCl, 1 mM TCEP, 0.01% CHAPS) was prepared. A 2-fold dilution series of untagged peptide in assay buffer was made (0 – 2 mM).
Protein and peptide stock solutions were mixed 1:1. Blank samples contained assay buffer only. The plate was sealed, centrifuged for 1 min at 1000 ´ g, and then incubated in the dark for 30 min before reading. Readings were taken with 50 flashes per well, and measured in millipolarisation (mP) units. Data were exported to Microsoft Excel, and analysed in GraphPad Prism 6.0. The means of technical duplicate values were calculated for both experiments, and FP values were plotted against unlabelled peptide concentration. Curves were normalised using the overall mean maximum and minimum FP values of the control 3BP2 TBM peptide. Curves were fitted using a non-linear regression, log(inhibitor) vs. response – variable slope (four parameters) model.
Multiple sequence alignments and amino acid identity mapping
Sequences of tankyrase ARCs were aligned using ClustalX (version 2.0) 4. […]
Supplementary Figure 1. Binding of TBM peptides containing arginine substituents to TNKS2 ARC4, measured in a fluorescence polarisation (FP) competition assay. Data points are means of technical duplicates from two independent experiments. […]

T6 sequence (Q9H2K2 173-487): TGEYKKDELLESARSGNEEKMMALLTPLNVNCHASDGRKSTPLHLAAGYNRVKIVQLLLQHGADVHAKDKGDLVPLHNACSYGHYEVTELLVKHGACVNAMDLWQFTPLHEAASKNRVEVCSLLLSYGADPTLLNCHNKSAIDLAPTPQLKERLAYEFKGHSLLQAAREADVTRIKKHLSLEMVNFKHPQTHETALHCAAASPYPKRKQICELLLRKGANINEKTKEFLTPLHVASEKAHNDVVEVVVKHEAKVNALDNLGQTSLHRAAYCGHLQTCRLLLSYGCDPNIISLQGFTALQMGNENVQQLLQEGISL
T3 sequence (Q9H2K2 20-178): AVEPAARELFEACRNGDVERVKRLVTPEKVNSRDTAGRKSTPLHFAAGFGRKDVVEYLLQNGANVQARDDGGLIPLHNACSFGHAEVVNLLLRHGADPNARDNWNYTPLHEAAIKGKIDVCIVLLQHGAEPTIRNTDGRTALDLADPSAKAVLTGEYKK
T4 sequence (O95271 331-645): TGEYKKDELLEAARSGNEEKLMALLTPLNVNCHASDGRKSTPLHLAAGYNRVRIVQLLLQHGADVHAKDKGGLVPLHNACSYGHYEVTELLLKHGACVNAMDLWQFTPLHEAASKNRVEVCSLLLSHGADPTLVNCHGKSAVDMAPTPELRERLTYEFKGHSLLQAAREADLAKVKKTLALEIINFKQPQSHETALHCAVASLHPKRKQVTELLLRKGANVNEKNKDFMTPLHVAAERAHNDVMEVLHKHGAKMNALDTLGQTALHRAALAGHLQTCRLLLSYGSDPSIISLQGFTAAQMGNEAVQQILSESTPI
T2 sequence (O95271 799-958): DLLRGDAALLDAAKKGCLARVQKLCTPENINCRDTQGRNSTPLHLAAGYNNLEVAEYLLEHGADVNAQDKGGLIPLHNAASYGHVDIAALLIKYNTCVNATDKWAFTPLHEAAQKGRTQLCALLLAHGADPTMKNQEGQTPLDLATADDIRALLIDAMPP
T1 sequence (O95271 178-336): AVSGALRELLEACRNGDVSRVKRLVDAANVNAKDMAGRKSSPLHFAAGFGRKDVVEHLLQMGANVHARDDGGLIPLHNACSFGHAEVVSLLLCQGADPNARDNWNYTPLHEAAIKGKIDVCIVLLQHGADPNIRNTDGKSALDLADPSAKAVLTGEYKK
T5 sequence (O95271 646-807): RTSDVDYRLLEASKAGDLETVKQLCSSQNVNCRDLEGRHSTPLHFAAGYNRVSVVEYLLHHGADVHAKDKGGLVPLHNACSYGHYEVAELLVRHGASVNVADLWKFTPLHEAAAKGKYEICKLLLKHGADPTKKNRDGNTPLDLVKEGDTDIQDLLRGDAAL

IC50 (TNKS2 ARC4) [µM]	Molecule	waterLOGSY (TNKS ARC1 (178–336))	waterLOGSY (TNKS ARC5 (799–958))	waterLOGSY (TNKS2 ARC1 (20–178))	waterLOGSY (TNKS ARC2–3 (331–645))	waterLOGSY (TNKS ARC4 (646–807))	waterLOGSY (TNKS2 ARC2–3 (173–487))
–	O=C(NCc1ccco1)c1ccc2nccnc2c1 [compound 9]	negative NOE signal	negative NOE signal	no NOE	negative NOE signal	negative NOE signal	negative NOE signal
22	LPHLQRSPPDGQSFRSW [3BP2 16-mer peptide, 16-mer TBM peptide derived from 3BP2, W added for A280, N-terminus acetylated, C-terminus amide-capped; positive control, reference compound]	–	–	–	–	–	–
